“Also recorded” adds a separate entry of the source. Like-named read-outs stand apart in the source and are kept apart here.
Tests used:
MinD [1] = experiment: Self-organization assay: ssDNA competition with preformed dsDNA-peptide conjugate; type: biochemical, Escherichia coli; conditions: 160 nM common 10 nt and 10 nt peptide conjugates preincubated with 1 μM MinD, competitor added in increasing amounts
Procedure: Supported lipid bilayers (SLBs) were formed by fusion of SUVs in a 96-well plate with a glass bottom (Greiner Bio-One, Kremsmünster, Austria). Plates were cleaned for 30 s (30% power, 0.3 mbar) in a Zepto plasma cleaner (Diener electronic GmbH, Ebhausen, Germany) using oxygen as the process gas. Lipids were prepared as described above, except that sonication was used instead of freeze–thaw cycles to form SUVs. SUVs were added to each reaction chamber at a final concentration of 0.6 mg/mL and incubated for 2 min on a 37 °C warm heating block.
All self-organization assays were performed as previously described.[12],[30] […] For fluorescence imaging, MinD was doped with 30% ATTO655-KCK-MinD.
Imaging was performed on either a commercial Zeiss LSM800 or LSM780 confocal microscope each equipped with a Zeiss C-Apochromat 40X/1.20 water-immersion objective (Carl Zeiss AG, Oberkochen, Germany). ATTO655-KCK-MinD was excited at 640 nm and imaging was performed with a pinhole diameter of 1 Airy unit.
Image analysis was performed in Fiji with the Radial Profile plugin (https://imagej.nih.gov/ij/plugins/radial-profile.html) using custom macro scripts.[31],[32] To discriminate among different patterns and to further characterize them, two approaches were applied. In the first, autocorrelation analysis was performed for each image. A soft windowing function (raised-cosine window, 1 at the center and 0.75 at the edges) was applied to reduce edge effects. Then the autocorrelation image was computed, from which a radial amplitude profile was generated. The position of the first peak in the profile was identified as the correlation distance. Patterns were further analyzed by computing the percentage variation of the correlation intensity along the ring in the autocorrelation image, here defined as correlation dispersion. […] Once separated, the pattern types were further characterized on the basis of additional parameters. Specifically, for the quasi-stationary patterns we used the spot density, derived from the reciprocal of the squared correlation distance, or the correlation distance itself. […]

MinD ATPase [2] = target: T1, MinD ATPase (Escherichia coli, UniProt P0AEZ3); conditions: read-out: IC50 of MinD ATPase activity; unconjugated ssDNA competitor added to MinD with common 10 nt + complementary 10 nt peptide conjugates; two independent assays, each three technical replicates; 95% CI (nM): 12-mer 60.3 to 81.9, 10-mer 393.6 to 772.0, 7-mer 1557.0 to 2730.0
T1 sequence (P0AEZ3 1-270): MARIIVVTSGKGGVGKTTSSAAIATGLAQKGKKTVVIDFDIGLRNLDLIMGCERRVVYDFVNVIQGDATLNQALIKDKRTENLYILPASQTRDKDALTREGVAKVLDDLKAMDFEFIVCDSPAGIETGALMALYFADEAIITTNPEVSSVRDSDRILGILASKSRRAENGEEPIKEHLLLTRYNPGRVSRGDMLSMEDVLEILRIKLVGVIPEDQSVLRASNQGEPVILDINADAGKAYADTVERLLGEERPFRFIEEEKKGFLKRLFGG

MinD ATPase [3] = target: T1, MinD ATPase; experiment: MinD ATPase assay: free biotin competing with MinE(13-31)-biotin for divalent streptavidin; type: biochemical; parameters: His (N); made in house; host or cells: E. coli BL21 (DE3)
MinD [4] = conditions: 1 μM MinD, 500 nM MinE(13-31)-biotin, 90 nM divalent streptavidin
MinD ATPase [5] = target: T1, MinD ATPase; conditions: 1 μM MinD, controls: four technical replicates, unconjugated peptide or single unhybridized conjugate

In the case of “10-mer: competitor ssDNA 5`-AGATGTATTT-3`, 8 overlaps (DNA, backbone not given here)”, the “alteration/abolition of MinD patterns by ssDNA competitor” value (from here on “alteration/abolition of MinD patterns”) (MinD [1]) is reported as “abolition of MinD self-organization, but only at higher concentrations in comparison to the 12-mer; also recorded: altered wavelengths of the protein patterns, before eventually abolishing them completely”, the “alteration/abolition of MinD patterns” value (MinD [1]; listed as 10mer) is reported as “alteration, and ultimately abolition, of protein patterns” and the IC50 (MinD ATPase [2]) is reported as 551 nM.

With “12-mer: competitor ssDNA 5`-CTAGATGTATAA-3`, 12 overlaps (DNA, backbone not given here)” the “alteration/abolition of MinD patterns” value (MinD [1]) was “alteration, and ultimately abolition, of protein patterns; also recorded: clear transformation from propagating surface waves, through quasi-stationary patterns (reverse hexagons), to the complete abolition of protein patterns” and the IC50 (MinD ATPase [2]) was 70.3 nM.

With `O=C(O)CCCC[C@@H]1SC[C@@H]2NC(=O)N[C@@H]21` [free biotin, biotin] the IC50 (MinD ATPase [3]) was 8.7 nM and the “free biotin concentration for complete abolition of patterns” value (MinD [4]) was “approximately 50 nM”.

With “N-term-NTANIAKERLQIIVAERRRGSGK(N3)-C-term [MinE(13-31)]” the “MinD ATPase stimulation (in words)” value (MinD ATPase [5]) was “only able to slightly stimulate MinD’s ATPase activity” and the “MinD ATPase stimulation (in words)” value (MinD ATPase [5]; listed as unconjugated peptide) was “slightly elevated”.

Source: publication PMC7872319, “Probing Biomolecular Interactions by a Pattern-Forming Peptide–Conjugate Sensor” (Bioconjugate Chemistry, 2020)
